In patent US9896423B2, “Deuterium substituted 1-[2-(2,4-dimethyl-phenylsulfanyl)-phenyl]piperazine compound or derivatives thereof, and pharmaceutical composition and use thereof” (Jiangsu Jibeier Pharmaceutical Co. Ltd., priority 2014, dated 2018):
Values joined by “and” are separate entries in the source; they are usually repeats but may differ in a detail not shown here. Identical values can stand only once. Counter-ions that a name gives are not always drawn. Like-named read-outs stand apart in the source and are kept apart here.

Tests used:
[1] = Pharmacokinetic test in rats, gavage administration; format: in vivo, SD rats;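 for AUC0-t (area under the plasma concentration-time curve from zero to the last sampling time): plasma area under the curve AUC0-1 in μg·h/L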
Procedure: The preferred compound of the present disclosure was assessed in rats for its pharmacokinetic profile.
SD rats, male and female, weighing 150 to 250 g
Mobile phase: 10 mM ammonium formate aqueous solution:methanol=15:85
The ionization source was electrospray ionization source. The detection mode was positive mode. Multiple reaction monitoring (MRM) was used as the scanning mode. The ion reaction for the quantitative analysis was the following: m/z was 305.2\150.0 for XX, and 256.1\167.1 for diphenhydramine (the internal standard).
XX or YY was orally administered with single dose of 20 mg/kg to six SD rats, one half of which were male and the other half was female. XX or YY was dissolved in 10% hydroxypropyl-β-cyclodextrin. […]
After the blood collection, the tubes were immediately gently turned upside down at least five times to ensure sufficient mixing, and placed on ice. Heparin was added for anticoagulation. The samples were centrifuged at 8000 rpm for 5 min to separate serum from erythrocyte. The serum was transferred with a pipettor to 2 mL polypropylene (PP) tubes, which were marked with the name of the compound and the time points, and stored in a refrigerator at −40° C. before LC-MS analysis. Samples with high concentrations were diluted with rat blank plasma.
2.5 μL of Meth-H2O and 5 μL of the internal standard solution (20 ng/mL, IS) were added to 50 μL of the plasma. Subsequently, 150 μL of methanol was added to the mixture to precipitate protein and the samples were then centrifuged at 13000 rpm for 5 min. The upper organic phase was taken out, filtrated with a 0.22 μM microporous membrane, and 2 μL of the sample was injected for the LC-MS analysis.

[2] = system: Male ICR mice; assay: Mice tail suspension test; format: in vivo; conditions: for effect on length of time that the tail-suspended mice stopped moving vs blank control: two successive weeks; for Duration without Move within 6 min: mice tail suspension, gavage 14 days, n = 10, x ± s
Source text: The following method is used for testing the antidepression effect of the compound of the present application. ICR mice or SD rats, gavaged for two successive weeks, were subjected to mice swimming test, mice tail suspension test and rats swimming test. See below for details of the tests and results.
The animals, medicaments, calculation of dosages to the mice, preparation of drug solution and apparatus are the same as those in the mice swimming test.
The medicaments were correspondingly administered by gavage, once a day, to the animals in the groups for 14 successive days, with the amount of 0.2 ml per 10 g of body weight. The mice were subjected to tail suspension one hour later after the last oral administration. The suspension continued for 6 min.
The data was given as “average±standard deviation” (x±s). One-way analysis of variance (ANOVA) was used for data difference statistics. Differences among the groups were determined by P<0.05.

[3] = both sexes, Sprague-Dawley, rat, plasma, oral, 20 mg/kg, 20 mg/kg oral, individual rats 1-6, read-out: Concentrations in Plasma of Rats after Oral Administration
[4] = both sexes, Sprague-Dawley, rat, plasma, oral, 20 mg/kg, 20 mg/kg oral, mean of 6 rats, read-out: Concentrations in Plasma of Rats after Oral Administration, Mean ± SD
[5] = rats, oral 20 mg/kg, individual rats 1-6, 20 mg/kg

[2H]C([2H])([2H])c1ccc(Sc2ccccc2N2CCNCC2)c(C([2H])([2H])[2H])c1 [XX, 1-{2-[2,4-bis(trideuteriomethyl)phenylsulfanyl]phenyl}piperazine hydrobromic acid salt]
concentration at 1.5 h ([1]; both sexes, Sprague-Dawley, rat, plasma, oral, 20 mg/kg, 20 mg/kg oral, 1.5 h, mean of 6 rats, read-out: Concentrations in Plasma of Rats after Oral Administration, Mean ± SD): 103 ± 26.9 ng/mL
concentration at 2 h [1, 3]: 78.6 ng/mL
concentration at 2 h [1, 4]: 98.2 ± 19.5 ng/mL
concentration at 3 h [1, 3]: 58 ng/mL
concentration at 3 h [1, 4]: 68.7 ± 12 ng/mL
concentration at 4 h [1, 3]: 63.4 ng/mL
concentration at 4 h [1, 4]: 65.1 ± 10.4 ng/mL
concentration at 6 h [1, 3]: 46.1 ng/mL
concentration at 6 h [1, 4]: 44.1 ± 7.27 ng/mL
concentration at 8 h [1, 3]: 22.1 ng/mL
concentration at 8 h [1, 4]: 23.5 ± 4.49 ng/mL
concentration at 10 h [1, 3]: 16.7 ng/mL
concentration at 10 h [1, 4]: 16.5 ± 2.41 ng/mL
concentration at 12 h [1, 3]: 8.86 ng/mL
concentration at 12 h [1, 4]: 8.24 ± 1.69 ng/mL
concentration at 14 h ([1]; both sexes, Sprague-Dawley, rat, plasma, oral, 20 mg/kg, 20 mg/kg oral, 14 h, mean of 6 rats, read-out: Concentrations in Plasma of Rats after Oral Administration, Mean ± SD): 4.27 ± 1.58 ng/mL
concentration at 24 h ([1]; both sexes, Sprague-Dawley, rat, plasma, oral, 20 mg/kg, 20 mg/kg oral, 24 h, mean of 6 rats, read-out: Concentrations in Plasma of Rats after Oral Administration, Mean ± SD): 0.75 ± 0.51 ng/mL
bioavailability ([1]; both sexes, Sprague-Dawley, rat, plasma, oral, 20 mg/kg, rats, oral 20 mg/kg vs iv 2 mg/kg, n = 6, read-out: F % (absolute bioavailability), Mean ± SD): 12.2 ± 1.72%
AUC(0-t) ([1]; both sexes, Sprague-Dawley, rat, plasma, po, 20 mg/kg, gavage administration of 20 mg/kg, rats, read-out: AUC0-t in the rats' plasma): 583 ± 82.7 ng·h/mL
AUC0-t increased comparing with that of its non-deuterium counterpart ([1]; rats, gavage 20 mg/kg, relative to Vortioxetine): 19%
F % ([1]; rats, oral 20 mg/kg vs iv 2 mg/kg, individual rats 1-6): 11.5% and 10.1% and 13.8% and 14.6% and 11.9%
AUC0-t (area under the plasma concentration-time curve from zero to the last sampling time) [1, 5]: 552.3 ng·h/mL and 487.5 ng·h/mL and 659.3 ng·h/mL and 703.9 ng·h/mL and 569.8 ng·h/mL
AUC0-∞ [1, 5]: 552.5 ng·h/mL and 488.9 ng·h/mL and 666.0 ng·h/mL and 705.3 ng·h/mL and 571.4 ng·h/mL
Cmax [1, 5]: 91.6 ng/mL and 77.8 ng/mL and 120.8 ng/mL and 144 ng/mL and 115.8 ng/mL
MRT0-∞ [1, 5]: 4.92 h and 5.44 h and 5.08 h and 4.24 h and 4.28 h
t1/2 [1, 5]: 4.0 h and 1.7 h and 2.8 h and 3.5 h and 2.6 h and 2.9 h
effect on length of time that the tail-suspended mice stopped moving vs blank control ([2]; 1.5 mg/kg gavage): showed a tendency to shorten
effect on length of time that the tail-suspended mice stopped moving vs blank control ([2]; 3 mg/kg gavage): markedly shortened
Duration without Move within 6 min ([2]; 1.5 mg/kg): 212.6 ± 54.9 s
Duration without Move within 6 min ([2]; 3 mg/kg): 152.9 ± 35.4 s
